Measurements taken from ChEMBL document CHEMBL4507280 (2021).

How the values were obtained:
[1] = molecular target: AP2-associated protein kinase 1 (Homo sapiens) (UniProt Q2M2I8); conditions: Compound concentration 1000.0 nM
[2] = system: Tyrosine-protein kinase ABL1 (Homo sapiens), P00519 [H396P]; conditions: Compound concentration 1000.0 nM
[3] = molecular target: Tyrosine-protein kinase ABL1 (Homo sapiens) (UniProt P00519); conditions: Compound concentration 1000.0 nM
[4] = molecular target: Tyrosine-protein kinase ABL1 (Homo sapiens) (UniProt P00519); conditions: Compound concentration 1000.0 nM; remark: listed apart in the source
[5] = molecular target: BMP-2-inducible protein kinase (Homo sapiens) (UniProt Q9NSY1); conditions: Compound concentration 1000.0 nM
[6] = molecular target: Bone morphogenetic protein receptor type-1B (Homo sapiens) (UniProt O00238); conditions: Compound concentration 1000.0 nM
[7] = molecular target: Cyclin-dependent kinase 2 (Homo sapiens) (UniProt P24941); conditions: Compound concentration 1000.0 nM
[8] = molecular target: Cyclin-dependent kinase 3 (Homo sapiens) (UniProt Q00526); conditions: Compound concentration 1000.0 nM
[9] = molecular target: Cyclin-dependent kinase 8 (Homo sapiens) (UniProt P49336); conditions: Compound concentration 1000.0 nM
[10] = molecular target: Cyclin-dependent kinase-like 5 (Homo sapiens) (UniProt O76039); conditions: Compound concentration 1000.0 nM
[11] = molecular target: Serine/threonine-protein kinase MRCK gamma (Homo sapiens) (UniProt Q6DT37); conditions: Compound concentration 1000.0 nM
[12] = system: Epidermal growth factor receptor (Homo sapiens), P00533 [UNDEFINED MUTATION]; conditions: Compound concentration 1000.0 nM
[13] = system: Epidermal growth factor receptor (Homo sapiens), P00533 [UNDEFINED MUTATION]; conditions: Compound concentration 1000.0 nM; remark: listed apart in the source
[14] = system: Epidermal growth factor receptor (Homo sapiens), P00533 [T790M]; conditions: Compound concentration 1000.0 nM
[15] = molecular target: Ephrin type-A receptor 3 (Homo sapiens) (UniProt P29320); conditions: Compound concentration 1000.0 nM
[16] = molecular target: Ephrin type-A receptor 5 (Homo sapiens) (UniProt P54756); conditions: Compound concentration 1000.0 nM
[17] = system: Fibroblast growth factor receptor 3 (Homo sapiens), P22607 [G697C]; conditions: Compound concentration 1000.0 nM
[18] = molecular target: Serine/threonine-protein kinase haspin (Homo sapiens) (UniProt Q8TF76); conditions: Compound concentration 1000.0 nM
[19] = molecular target: Interleukin-1 receptor-associated kinase 1 (Homo sapiens) (UniProt P51617); conditions: Compound concentration 1000.0 nM
[20] = molecular target: Interleukin-1 receptor-associated kinase 3 (Homo sapiens) (UniProt Q9Y616); conditions: Compound concentration 1000.0 nM
[21] = molecular target: Interleukin-1 receptor-associated kinase 4 (Homo sapiens) (UniProt Q9NWZ3); conditions: Compound concentration 1000.0 nM
[22] = molecular target: Mitogen-activated protein kinase 8 (Homo sapiens) (UniProt P45983); conditions: Compound concentration 1000.0 nM
Chain of Mitogen-activated protein kinase 8 (Homo sapiens) (P45983 whole entry, the tested form may be a part): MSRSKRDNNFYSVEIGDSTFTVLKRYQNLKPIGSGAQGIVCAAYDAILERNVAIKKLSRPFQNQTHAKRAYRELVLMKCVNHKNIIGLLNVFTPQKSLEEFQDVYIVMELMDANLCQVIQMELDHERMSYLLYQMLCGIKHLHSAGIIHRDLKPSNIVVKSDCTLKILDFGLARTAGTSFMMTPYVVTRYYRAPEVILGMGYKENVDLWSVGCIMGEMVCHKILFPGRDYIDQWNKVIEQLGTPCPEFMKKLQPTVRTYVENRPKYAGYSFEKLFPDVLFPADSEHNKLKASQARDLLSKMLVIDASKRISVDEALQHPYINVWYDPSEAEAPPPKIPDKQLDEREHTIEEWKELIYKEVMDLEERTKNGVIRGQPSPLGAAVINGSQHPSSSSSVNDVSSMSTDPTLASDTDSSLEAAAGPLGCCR

[23] = molecular target: LIM domain kinase 1 (Homo sapiens) (UniProt P53667); conditions: Compound concentration 1000.0 nM
[24] = molecular target: Serine/threonine-protein kinase MAK (Homo sapiens) (UniProt P20794); conditions: Compound concentration 1000.0 nM
[25] = molecular target: Microtubule-associated serine/threonine-protein kinase 1 (Homo sapiens) (UniProt Q9Y2H9); conditions: Compound concentration 1000.0 nM
[26] = molecular target: Mitogen-activated protein kinase kinase kinase 11 (Homo sapiens) (UniProt Q16584); conditions: Compound concentration 1000.0 nM
[27] = molecular target: Myosin-IIIb (Homo sapiens) (UniProt Q8WXR4); conditions: Compound concentration 1000.0 nM
[28] = molecular target: Serine/threonine-protein kinase PAK 3 (Homo sapiens) (UniProt O75914); conditions: Compound concentration 1000.0 nM
[29] = molecular target: 3-phosphoinositide-dependent protein kinase 1 (Homo sapiens) (UniProt O15530); conditions: Compound concentration 1000.0 nM
[30] = molecular target: Cyclin-dependent kinase 2 homolog (Plasmodium falciparum (isolate 3D7)) (UniProt P61075); conditions: Compound concentration 1000.0 nM
Chain of Cyclin-dependent kinase 2 homolog (Plasmodium falciparum (isolate 3D7)) (P61075 whole entry): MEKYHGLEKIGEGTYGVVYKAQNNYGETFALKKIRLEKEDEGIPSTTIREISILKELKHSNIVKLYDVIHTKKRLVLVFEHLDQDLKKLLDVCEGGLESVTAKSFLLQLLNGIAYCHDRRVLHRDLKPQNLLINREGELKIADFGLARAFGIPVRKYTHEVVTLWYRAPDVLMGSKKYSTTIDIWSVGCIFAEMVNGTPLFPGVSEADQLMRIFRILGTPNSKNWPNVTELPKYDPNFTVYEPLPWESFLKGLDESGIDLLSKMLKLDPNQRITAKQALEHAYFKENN

[31] = molecular target: Cyclin-dependent kinase 15 (Homo sapiens) (UniProt Q96Q40); conditions: Compound concentration 1000.0 nM
[32] = molecular target: Phosphatidylinositol 4,5-bisphosphate 3-kinase catalytic subunit alpha isoform (Homo sapiens) (UniProt P42336); conditions: Compound concentration 1000.0 nM
[33] = molecular target: Serine/threonine-protein kinase PLK3 (Homo sapiens) (UniProt Q9H4B4); conditions: Compound concentration 1000.0 nM
[34] = molecular target: Serine/threonine-protein kinase PLK4 (Homo sapiens) (UniProt O00444); conditions: Compound concentration 1000.0 nM
[35] = molecular target: Protein kinase C delta type (Homo sapiens) (UniProt Q05655); conditions: Compound concentration 1000.0 nM
[36] = molecular target: cGMP-dependent protein kinase 1 (Homo sapiens) (UniProt Q13976); conditions: Compound concentration 1000.0 nM
[37] = molecular target: Serine/threonine-protein kinase PRP4 homolog (Homo sapiens) (UniProt Q13523); conditions: Compound concentration 1000.0 nM
[38] = molecular target: Receptor-interacting serine/threonine-protein kinase 4 (Homo sapiens) (UniProt P57078); conditions: Compound concentration 1000.0 nM
[39] = molecular target: Rho-associated protein kinase 2 (Homo sapiens) (UniProt O75116); conditions: Compound concentration 1000.0 nM
Chain of Rho-associated protein kinase 2 (Homo sapiens) (O75116 whole entry, looked up): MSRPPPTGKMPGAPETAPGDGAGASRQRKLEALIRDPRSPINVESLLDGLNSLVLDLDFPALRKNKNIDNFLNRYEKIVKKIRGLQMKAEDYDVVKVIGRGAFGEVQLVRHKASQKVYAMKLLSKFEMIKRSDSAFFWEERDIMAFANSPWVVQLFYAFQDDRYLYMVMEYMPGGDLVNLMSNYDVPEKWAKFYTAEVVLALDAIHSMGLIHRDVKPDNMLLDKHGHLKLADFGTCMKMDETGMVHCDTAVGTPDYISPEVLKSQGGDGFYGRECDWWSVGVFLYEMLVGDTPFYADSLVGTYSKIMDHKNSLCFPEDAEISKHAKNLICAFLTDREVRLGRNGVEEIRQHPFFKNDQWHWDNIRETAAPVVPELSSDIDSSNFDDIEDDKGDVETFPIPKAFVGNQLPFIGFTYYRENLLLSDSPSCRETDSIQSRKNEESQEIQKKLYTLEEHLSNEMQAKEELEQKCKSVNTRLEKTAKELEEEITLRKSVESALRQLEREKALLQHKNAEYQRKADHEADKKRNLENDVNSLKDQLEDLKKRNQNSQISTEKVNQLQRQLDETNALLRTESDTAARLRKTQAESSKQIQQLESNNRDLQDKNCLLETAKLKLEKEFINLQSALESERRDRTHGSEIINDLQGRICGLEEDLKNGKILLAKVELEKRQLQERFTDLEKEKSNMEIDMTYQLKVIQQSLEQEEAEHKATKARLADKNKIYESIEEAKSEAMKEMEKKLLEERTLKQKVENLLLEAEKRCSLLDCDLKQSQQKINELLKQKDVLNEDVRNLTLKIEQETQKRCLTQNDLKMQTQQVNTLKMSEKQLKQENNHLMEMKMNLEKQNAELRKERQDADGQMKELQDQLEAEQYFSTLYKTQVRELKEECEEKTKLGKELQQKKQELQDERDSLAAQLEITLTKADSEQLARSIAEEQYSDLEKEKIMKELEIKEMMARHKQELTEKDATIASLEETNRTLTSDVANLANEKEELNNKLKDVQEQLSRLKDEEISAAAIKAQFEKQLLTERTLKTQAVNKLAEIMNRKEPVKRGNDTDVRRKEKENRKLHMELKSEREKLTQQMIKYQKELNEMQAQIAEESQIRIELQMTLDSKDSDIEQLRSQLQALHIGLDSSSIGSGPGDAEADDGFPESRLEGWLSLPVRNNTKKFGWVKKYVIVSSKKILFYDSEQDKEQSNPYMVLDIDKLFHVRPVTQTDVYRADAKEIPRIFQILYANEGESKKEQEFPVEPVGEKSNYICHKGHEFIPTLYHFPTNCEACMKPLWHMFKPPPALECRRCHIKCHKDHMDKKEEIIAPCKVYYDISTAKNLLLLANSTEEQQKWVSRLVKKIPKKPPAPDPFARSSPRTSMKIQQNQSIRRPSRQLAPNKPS

[40] = molecular target: Dual specificity protein kinase TTK (Homo sapiens) (UniProt P33981); conditions: Compound concentration 1000.0 nM
[41] = molecular target: Non-receptor tyrosine-protein kinase TYK2 (Homo sapiens) (UniProt P29597); conditions: Compound concentration 1000.0 nM
[42] = molecular target: Serine/threonine-protein kinase ULK1 (Homo sapiens) (UniProt O75385); conditions: Compound concentration 1000.0 nM
[43] = molecular target: Serine/threonine-protein kinase WNK3 (Homo sapiens) (UniProt Q9BYP7); conditions: Compound concentration 1000.0 nM
Chain of Serine/threonine-protein kinase WNK3 (Homo sapiens) (Q9BYP7 whole entry): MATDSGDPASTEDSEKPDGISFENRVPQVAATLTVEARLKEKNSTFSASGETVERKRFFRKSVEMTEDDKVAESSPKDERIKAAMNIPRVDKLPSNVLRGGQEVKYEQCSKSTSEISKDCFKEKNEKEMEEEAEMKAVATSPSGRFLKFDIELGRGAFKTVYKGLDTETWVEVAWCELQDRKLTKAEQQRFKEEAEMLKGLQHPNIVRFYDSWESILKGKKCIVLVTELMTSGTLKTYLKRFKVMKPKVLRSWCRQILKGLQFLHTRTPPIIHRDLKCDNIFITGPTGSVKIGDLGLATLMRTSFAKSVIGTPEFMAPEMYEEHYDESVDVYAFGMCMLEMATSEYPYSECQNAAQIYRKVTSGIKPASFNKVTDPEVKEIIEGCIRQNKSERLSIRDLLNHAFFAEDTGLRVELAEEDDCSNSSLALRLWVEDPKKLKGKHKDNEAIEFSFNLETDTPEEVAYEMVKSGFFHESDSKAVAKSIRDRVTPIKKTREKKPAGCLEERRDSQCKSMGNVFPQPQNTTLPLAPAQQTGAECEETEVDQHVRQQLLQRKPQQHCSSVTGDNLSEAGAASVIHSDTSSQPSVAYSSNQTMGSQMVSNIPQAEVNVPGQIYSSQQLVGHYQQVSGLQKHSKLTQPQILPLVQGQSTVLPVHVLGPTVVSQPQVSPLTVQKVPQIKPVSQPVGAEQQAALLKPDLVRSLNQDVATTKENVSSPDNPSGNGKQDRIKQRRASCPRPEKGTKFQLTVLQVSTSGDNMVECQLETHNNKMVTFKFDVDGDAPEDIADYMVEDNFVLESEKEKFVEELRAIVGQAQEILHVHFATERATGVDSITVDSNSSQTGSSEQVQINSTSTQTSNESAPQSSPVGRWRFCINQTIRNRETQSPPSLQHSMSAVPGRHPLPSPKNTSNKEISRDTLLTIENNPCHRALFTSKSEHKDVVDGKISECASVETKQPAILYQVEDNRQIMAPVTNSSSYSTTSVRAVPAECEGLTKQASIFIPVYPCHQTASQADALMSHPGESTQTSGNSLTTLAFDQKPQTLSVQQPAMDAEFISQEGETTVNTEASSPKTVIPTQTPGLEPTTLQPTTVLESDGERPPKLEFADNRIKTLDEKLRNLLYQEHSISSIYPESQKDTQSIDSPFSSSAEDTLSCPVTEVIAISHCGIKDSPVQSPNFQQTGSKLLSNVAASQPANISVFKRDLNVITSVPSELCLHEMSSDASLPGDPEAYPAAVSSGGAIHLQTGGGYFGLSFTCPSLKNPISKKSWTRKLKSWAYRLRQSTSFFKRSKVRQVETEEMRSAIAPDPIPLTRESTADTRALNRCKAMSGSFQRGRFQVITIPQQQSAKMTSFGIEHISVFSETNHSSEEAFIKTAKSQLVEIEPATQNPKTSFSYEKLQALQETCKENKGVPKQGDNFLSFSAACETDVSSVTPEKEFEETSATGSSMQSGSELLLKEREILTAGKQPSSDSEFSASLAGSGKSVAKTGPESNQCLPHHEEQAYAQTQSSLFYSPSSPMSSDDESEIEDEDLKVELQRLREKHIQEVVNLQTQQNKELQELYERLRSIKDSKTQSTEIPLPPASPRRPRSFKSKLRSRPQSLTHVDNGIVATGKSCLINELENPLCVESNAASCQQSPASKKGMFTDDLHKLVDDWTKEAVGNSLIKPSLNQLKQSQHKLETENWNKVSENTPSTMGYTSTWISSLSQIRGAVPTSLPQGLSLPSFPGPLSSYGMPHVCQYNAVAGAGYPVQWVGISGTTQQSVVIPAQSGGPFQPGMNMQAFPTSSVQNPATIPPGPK

[44] = molecular target: 5-hydroxytryptamine receptor 2B (Homo sapiens) (UniProt P41595); conditions: Compound concentration 10.0 uM
[45] = molecular target: Beta-1 adrenergic receptor (Homo sapiens) (UniProt P08588); conditions: Compound concentration 10.0 uM

Chain of AP2-associated protein kinase 1 (Homo sapiens) (Q2M2I8 whole entry, looked up): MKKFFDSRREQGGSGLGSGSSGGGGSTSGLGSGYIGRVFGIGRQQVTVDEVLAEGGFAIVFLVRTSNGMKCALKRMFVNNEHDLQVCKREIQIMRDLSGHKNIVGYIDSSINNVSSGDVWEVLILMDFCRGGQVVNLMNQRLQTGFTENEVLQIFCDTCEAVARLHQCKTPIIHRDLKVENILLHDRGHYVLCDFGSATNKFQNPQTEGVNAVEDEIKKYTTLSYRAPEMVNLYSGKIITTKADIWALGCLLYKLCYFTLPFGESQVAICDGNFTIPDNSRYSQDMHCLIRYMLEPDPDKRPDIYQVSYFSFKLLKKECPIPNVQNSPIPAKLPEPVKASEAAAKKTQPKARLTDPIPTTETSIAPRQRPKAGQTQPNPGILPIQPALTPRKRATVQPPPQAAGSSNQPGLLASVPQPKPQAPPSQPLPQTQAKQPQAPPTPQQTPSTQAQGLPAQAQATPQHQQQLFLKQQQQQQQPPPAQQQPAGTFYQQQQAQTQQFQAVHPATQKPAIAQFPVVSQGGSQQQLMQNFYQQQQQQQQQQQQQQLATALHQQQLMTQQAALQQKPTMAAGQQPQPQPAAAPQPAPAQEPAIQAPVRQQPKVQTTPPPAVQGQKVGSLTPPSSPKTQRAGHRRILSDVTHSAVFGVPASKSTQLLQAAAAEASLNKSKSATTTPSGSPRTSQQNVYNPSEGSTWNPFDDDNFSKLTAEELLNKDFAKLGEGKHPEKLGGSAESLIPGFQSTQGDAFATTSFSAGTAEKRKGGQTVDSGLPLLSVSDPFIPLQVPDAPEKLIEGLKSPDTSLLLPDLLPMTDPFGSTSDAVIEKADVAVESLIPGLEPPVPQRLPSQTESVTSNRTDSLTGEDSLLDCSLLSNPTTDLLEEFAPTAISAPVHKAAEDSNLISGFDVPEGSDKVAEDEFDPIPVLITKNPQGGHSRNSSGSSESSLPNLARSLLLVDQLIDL

CCC(=O)N[C@@H]1CC[C@H](C(=O)N(C)c2ccc(-c3nc4ccccc4o3)cc2)C1 [BI 99990]
inactive: residual activity [1] 100% | residual activity [2] 92% | residual activity [3] 76% | residual activity [4] 96% | residual activity [5] 100% | residual activity [6] 100% | residual activity [7] 100% | residual activity [8] 100% | residual activity [9] 100% | residual activity [10] 100% | residual activity [11] 100% | residual activity [12] 62% | residual activity [13] 88% | residual activity [14] 96% | residual activity [15] 100% | residual activity [16] 100% | residual activity [17] 88% | residual activity [18] 100% | residual activity [19] 100% | residual activity [20] 100% | residual activity [21] 100% | residual activity [22] 53% | residual activity [23] 100% | residual activity [24] 100% | residual activity [25] 94% | residual activity [26] 100% | residual activity [27] 100% | residual activity [28] 98% | residual activity [29] 100% | residual activity [30] 100% | residual activity [31] 100% | residual activity [32] 88% | residual activity [33] 84% | residual activity [34] 100% | residual activity [35] 89% | residual activity [36] 100% | residual activity [37] 77% | residual activity [38] 72% | residual activity [39] 100% | residual activity [40] 100% | residual activity [41] 100% | residual activity [42] 100% | residual activity [43] 100% | inhibition [44] 19.1% | inhibition [45] -4.55%

CCC(=O)N[C@H]1CC[C@@H](C(=O)N(C)c2ccc(-c3nc4ccccc4o3)cc2)C1 [BI 99179]
inactive: residual activity [1] 100% | residual activity [2] 88% | residual activity [3] 85% | residual activity [4] 72% | residual activity [5] 91% | residual activity [6] 91% | residual activity [7] 100% | residual activity [8] 98% | residual activity [9] 100% | residual activity [10] 82% | residual activity [11] 91% | residual activity [12] 78% | residual activity [13] 100% | residual activity [14] 87% | residual activity [15] 100% | residual activity [16] 78% | residual activity [17] 100% | residual activity [18] 100% | residual activity [19] 83% | residual activity [20] 85% | residual activity [21] 87% | residual activity [22] 58% | residual activity [23] 86% | residual activity [24] 85% | residual activity [25] 100% | residual activity [26] 93% | residual activity [27] 98% | residual activity [28] 98% | residual activity [29] 90% | residual activity [30] 80% | residual activity [31] 89% | residual activity [32] 94% | residual activity [33] 74% | residual activity [34] 78% | residual activity [35] 100% | residual activity [36] 100% | residual activity [37] 99% | residual activity [38] 50% | residual activity [39] 100% | residual activity [40] 100% | residual activity [41] 95% | residual activity [42] 78% | residual activity [43] 92% | inhibition [44] 4.55% | inhibition [45] -4.07%
